Source: patent US12686704B2, “Procoagulant peptides and use thereof” (RAMBAM MED-TECH LTD., priority 2021, dated 2026)

What was measured:
[1] = system: human umbilical vein endothelial cells (HUVEC); experiment: HUVEC proliferation, XTT assay; type: cell-based; conditions: 2.5 μg/ml and 5 μg/ml; 48 hour; FIG. 5A
Protocol: FIGS. 5A-5B include vertical bar graphs showing that heparanase procoagulant peptides induce human umbilical vein endothelial cells (HUVEC) proliferation. (5A) HUVEC cells were seeded in 96 wells plate (5,000 cells/well). Increasing concentration of peptides 16 and 16AC (2.5 μg/ml, and 5 μg/ml) were added to the cells. […] (5B) Similar experiment as described in 5A, but 10 ng/ml of peptide 7 (TFPI-2 derived inhibitory peptide) was added to the cells for 1 hour prior to the addition of peptide 16 (5 μg/ml) or 16AC (5 μg/ml).
Briefly, HUVEC cells were seeded in 96 wells plate (5,000 cells/well). Increasing concentration of peptides 16 and 16AC (2.5 μg/ml, and 5 μg/ml) were added to the cells.

ICR mice = experiment: Immunostaining of wound skin sections of ICR mice; type: in vivo, mouse; conditions: subcutaneous opposite to the wound every other day for a week; for expression of heparanase in micro-vessels: FIG. 10A; for expression of TF in micro-vessels: FIG. 10B; for expression of TFPI-1 in micro-vessels: FIG. 10C; for expression of TFPI-2 in micro-vessels: FIG. 10D
Protocol: FIGS. 10A-10D include micrographs of immunohistochemistry assays showing that heparanase procoagulant peptides increase the level of heparanase, TF, TFPI and TFPI-2. Full thickness incision was made in the back skin of ICR mice. Each group included 5 mice. From the day of surgery either peptide 16 or 16AC was injected subcutaneous opposite to the wound, every other day for a week. At the end of the experiment the mice were sacrificed and the wound skin section was analyzed by immunostaining. […] Images were visualized through ×50 magnitude, with 0.82 MDC objective lens, captured with a Nikon E995 digital camera (Nikon, Tokyo, Japan), and processed with Adobe Photoshop software (Adobe Systems, San Jose, CA, USA).
Briefly, full thickness incision was made in the back skin of ICR mice. Each group included 5 mice. From the day of surgery either peptide 16 or 16AC was injected subcutaneous opposite to the wound, every other day for a week. At the end of the experiment the mice were sacrificed and the wound skin section was analyzed by immunostaining.

HUVEC cells = experiment: Immunostaining of heparanase, TF, TFPI and TFPI-2 in HUVECs; type: cell-based, human; conditions: 10 μg/ml; overnight incubation at 37° C.; vs control cells
Protocol: FIGS. 6A-6F include micrographs of immunohistochemistry assays showing that heparanase procoagulant peptides increase the level of heparanase in HUVECs. Ten (10) μg/ml of peptide 16 (6B-6C) or 10 μg/ml of peptide 16AC (6E-6F) was added to HUVEC cells and compared to control cells (6A-6D). After 30 min or overnight incubation at 37° C., the cells were fixed using formaldehyde 4%, permeabilized, blocked and reacted with specific heparanase antibody. […] Images were visualized through ×50 magnitude, with 0.82 MDC objective lens, captured with a Nikon E995 digital camera (Nikon, Tokyo, Japan), and processed with Adobe Photoshop software (Adobe Systems, San Jose, CA, USA).
FIGS. 7A-7F include micrographs of immunohistochemistry assays showing that heparanase procoagulant peptides increase the level of TF in HUVECs. Ten (10) μg/ml of peptide 16 (7B-7C) or 10 μg/ml of peptide 16AC (7E-7F) was added to HUVEC cells and compared to control cells (7A-7D). After 30 min or overnight incubation at 37° C., the cells were fixed using formaldehyde 4%, permeabilized, blocked and reacted with specific TF antibody. Images were visualized through ×50 magnitude, with 0.82 MDC objective lens, captured with a Nikon E995 digital camera (Nikon, Tokyo, Japan), and processed with Adobe Photoshop software (Adobe Systems, San Jose, CA, USA).
FIGS. 8A-8F include micrographs of immunohistochemistry assays showing that heparanase procoagulant peptides increase the level of TFPI in HUVECs. Ten (10) μg/ml of peptide 16 (8B-8C) or 10 μg/ml of peptide 16AC (8E-8F) was added to HUVEC cells and compared to control cells (8A-8D). After 30 min or overnight incubation at 37° C., the cells were fixed using formaldehyde 4%, permeabilized, blocked and reacted with specific TFPI-1 antibody. Images were visualized through ×50 magnitude, with 0.82 MDC objective lens, captured with a Nikon E995 digital camera (Nikon, Tokyo, Japan), and processed with Adobe Photoshop software (Adobe Systems, San Jose, CA, USA).
FIGS. 9A-9F include micrographs of immunohistochemistry assays showing that heparanase procoagulant peptides increase the level of TFPI-2 in HUVECs. Ten (10) μg/ml of peptide 16 (9B-9C) or 10 μg/ml of peptide 16AC (9E-9F) was added to HUVEC cells and compared to control cells (9A-9D). After 30 min or overnight incubation at 37° C., the cells were fixed using formaldehyde 4%, permeabilized, blocked and reacted with specific TFPI-2 antibody. Images were visualized through ×50 magnitude, with 0.82 MDC objective lens, captured with a Nikon E995 digital camera (Nikon, Tokyo, Japan), and processed with Adobe Photoshop software (Adobe Systems, San Jose, CA, USA).
Briefly, 10 μg/ml of peptide 16 or 10 μg/ml of peptide 16AC was added to HUVEC cells and compared to control cells (6A-6D). After 30 min or overnight incubation at 37° C., the cells were fixed using formaldehyde 4%, permeabilized, blocked and reacted with specific antibodies targeting heparanase, TF, TFPI-1, and TFPI-2 (FIGS. 6-9, respectively).

Substance	cell proliferation [1]	expression of heparanase in micro-vessels (ICR mice)	expression of TF in micro-vessels (ICR mice)	expression of TFPI-1 in micro-vessels (ICR mice)	expression of TFPI-2 in micro-vessels (ICR mice)	TF level (staining) (HUVEC cells)	TFPI level (staining) (HUVEC cells)	TFPI-2 level (staining) (HUVEC cells)	heparanase level (staining) (HUVEC cells)
GSKRRKLRVYLHCT [Peptide 16, peptide comprising the procoagulant domain of heparanase, non-modified]	significant increase in cell proliferation	significant increase in the expression	significant increase in the expression	significant increase in the expression	significant increase in the expression	strong staining after overnight incubation	strong staining after overnight incubation	strong staining after overnight incubation	strong staining after overnight incubation
acetyl-GSKRRKLRVYLHCT-amid (Ac-GSKRRKLRVYLHCT-NH2) [Peptide 16AC, peptide 16 comprising a C-terminal amid group and an N-terminal acetyl group]	significant increase in cell proliferation	significant increase in the expression	significant increase in the expression	significant increase in the expression	significant increase in the expression	strong staining after overnight incubation	strong staining after overnight incubation	strong staining after overnight incubation	strong staining after overnight incubation
